This is an account of results in a melting point compilation (Tetko et al.; mined from patent text by program, amines drawn as free bases though some values may be those of a salt).

As a reminder, the melting point is the temperature, or range, at which the solid turns liquid. Take `O=C1CCC(Nc2nccc(-n3ncc4ccccc43)n2)CC1`: the melting point fell in the range of 212 to 213 °C.
As for `Cc1cc([N+](=O)[O-])cnc1NCCCN`, the figure is 93 to 95 °C; as for `CCOC(=O)C1=C(C)NC(COC(C)=O)=C(C(=O)OCC)C1c1ccccc1OC` (stereo not drawn), 84 to 86 °C; as for `CC(C)(C)c1nnc(N=C=O)s1`, 261 to 263 °C.
The compound `CC(Sc1ccccc1)n1cc(C2=C(c3cn(C(C)Sc4ccccc4)c4ccccc34)C(=O)NC2=O)c2ccccc21` (stereo not drawn) displayed a melting point of 102 to 105 °C.
`CCNc1nc(=O)n(Cc2ccc(OC)c(OC3CCCC3)c2)c2nc(C(C)C)[nH]c12` displayed a melting point of 110 to 115 °C.
As for `OC(c1ccc(F)cc1)(c1ccc(F)cc1)C1CCN(Cc2ccccc2)CC1`, the figure is 113 to 115 °C.
With `CCOC(=O)C(C#N)=CC=Cc1ccc(C(C)(C)C)cc1` the figure was 65 to 70 °C; with `O=C1c2cccc3c(Cl)c(Cl)cc(c23)C(=O)N1O`, 267 to 269 °C.
In turn, `CN1C(=O)CCC1(O)c1ccc(Cl)c(S(=O)(=O)NCCc2ccccc2)c1` (stereo not drawn) showed a melting point of 149 to 153 °C.
As for `Brc1ccc2c(c1)N=C(NCc1cccnc1)c1ccccc1N2`, the figure is 152 to 155 °C; as for `CC(=O)NC(CCc1ccc(C(O)CCCCCc2ccccc2)cc1)(CO[Si](C)(C)C(C)(C)C)CO[Si](C)(C)C(C)(C)C` (stereo not drawn), 118 to 120 °C.
As for `O=C(C1=C(c2ccccc2)c2ccccc2S1=O)c1ccc(O)cc1` (stereo not drawn), the figure is 140 to 145 °C; as for `Cc1ccccc1OCc1ccccc1I`, 106 to 108 °C; as for `CC(CN1CC=C(c2ccc(Cl)cc2)CC1)C(O)c1ccccc1` (stereo not drawn), 103 to 105 °C.
In turn, `COc1ccc(Cc2ccc3[nH]c(=S)[nH]c3c2)c(O)c1` returned a melting point of 248 to 250 °C.
Compound `CCC(NS(=O)(=O)c1ccc(N2CCOCC2)cc1)C(=O)O` (stereo not drawn) came in with a melting point of 163 to 165 °C.
`COCOc1cc(Cl)ccc1-c1cc(-c2cccc(NC(=O)Cn3ccnc3)c2)c(C#N)c(NC(=O)c2ccco2)n1` had a melting point of 157 to 160 °C.
With `CN(C)CCOc1ccc(C=NO)cc1` the figure was 95 to 96 °C; with `CC(=O)Nc1noc(C)c1Cl`, 121 to 122 °C; with `[N-]=[N+]=N[C@H](C(=O)O)C12CC3CC(CC(C3)C1)C2`, 110 to 112 °C.
For `COCCOCC(=O)N1CCC(Oc2cc3ncnc(Nc4cccc(Cl)c4F)c3cc2OC)CC1`, the melting point fell in the range of 110 to 111 °C.
Compound `CC(=O)Nc1cccc(C=O)c1` had a melting point of 68 to 70 °C.
As for `CN(C)CCOc1ccc(Cl)c(C(=O)O)c1Cl`, the figure is 234 to 236 °C.
With `CC1(O)CCN(Cc2ccc(C#CC(=O)Nc3ccc(-c4ccc(Cl)cc4)cc3)cc2)CC1`, the melting point fell in the range of 192 to 193 °C.
With `Nc1ccc(Oc2ccc(Oc3ccc(N)c(O)c3)cc2)cc1O`, the melting point was > 220 °C.
As for `Clc1ccc2c(c1)N=C(NCc1cccnc1)c1ccccc1O2`, the melting point was 167 to 169 °C.
With `CCc1coc2c(-c3ccc(F)cc3)c(-c3ccc(S(N)(=O)=O)cc3)nn12`, the melting point was 234 to 236 °C.
With `CCOC(=O)c1cc([N+](=O)[O-])c2ccccn2c1=O` the figure was 169 to 170 °C; with `Cc1cccc(NC(=O)NC2CN(C(=O)C(C)(C)C)c3ccc(C)cc3N(CC(=O)c3ccccc3C)C2=O)c1` (stereo not drawn), 218 to 220 °C; with `O=C(c1ccco1)c1cnn2c1NCCC2`, 138 to 139 °C.
Compound `N#CC(S)(CCC(=O)O)C1=NCCc2ccccc21` (stereo not drawn) gave a melting point of 149 to 150 °C.
As for `CCCCN(Cc1ccc(-c2ccccc2-c2nnn[nH]2)cc1)c1ncn(C)c1C(=O)OCC`, the figure is 203 to 204 °C.
`CC(Oc1c(Br)cc(Br)cc1Br)c1cc(Br)c(Br)cc1Br` (stereo not drawn) came in with a melting point of 110 to 112 °C.
With `CC(C)c1[nH]n(-c2c(Cl)cc(Cl)cc2Cl)c2nc(Cc3ccc(NC(=O)N4CCN(C)CC4)cc3)nc(=O)c1-2` the figure was 251 to 253 °C; with `CC(=O)NC[C@H]1CN(c2ccc(-c3noc(C)n3)c(F)c2)C(=O)O1`, 177 to 179 °C.
Consider `CN1CCN(c2nc3ccccc3[nH]2)CC1`, for which the melting point lay in the range of 222 to 224 °C.
Turning to `CC(C)(OCc1nn(Cc2ccccc2)c2ccccc12)C(=O)NN`, the melting point is 92 to 93 °C.
`CON(C)Cc1nc2c(N)nc3cc(-c4cccnc4)cnc3c2n1CC(C)(C)O` had a melting point of 187 to 189 °C.
In the case of `CC(C)OC1CCC(=O)N1S(=O)(=O)C=Cc1ccccc1` (stereo not drawn), the melting point lay within 92 to 94 °C.
The compound `O=C1OC(CN2CCC(O)(c3ccc(F)cc3)CC2)CN1c1ccc(F)cc1` (stereo not drawn) yielded a melting point of 145 to 147 °C.
With `O=C(CBr)c1ccc(OC2CCCCO2)cc1` (racemic) the figure was 102 to 104 °C.
With `CC(=O)OCC1OC(OC(C)=O)C(N=[N+]=[N-])C(OC(C)=O)C1OC1OC(COC(C)=O)C(OC(C)=O)C(OC(C)=O)C1OC(C)=O` (stereo not drawn) the figure was 77 to 78 °C; with `COc1ccc(-c2ccc(Cl)nn2)c(OCC2CO2)c1` (stereo not drawn), 111 to 112 °C.
The compound `Cc1cc(-c2cccc(C3=Nc4ccc(-n5cccc5)cc4NC(=O)C3)c2)ccn1` gave a melting point of 206 °C.
`Cc1nc2c(CO)cccn2c(=O)c1CCN1CCC(c2noc3cc(F)ccc23)CC1` yielded a melting point of 186 °C.
`Cc1cc(O)c2c(c1)CCCC2` yielded a melting point of 95 to 96 °C.
With `CC(C)=CCCNC(=S)Nc1nc(C)cs1`, the melting point fell in the range of 164 to 166 °C.
For the compound `COC(=O)ON=C(N)c1ccc(C(=O)OC(C)(C)C)cc1`, the melting point fell in the range of 157 to 159 °C.
As for `CCOC(=O)c1ccc2cnccc2n1`, the figure is 106 to 108 °C.
`CC(=O)Oc1ccccc1C=C1CCCc2cc(C)cnc21` showed a melting point of 85 to 87 °C.
With `CC(=O)c1ccc(S(=O)(=O)Nc2cccnc2Nc2ccccc2)cc1` the figure was 171 to 173 °C.
As for `C=Cn1cc(C(=O)O)c(=O)c2cc(F)c(N3CCN(C(=O)OCC)CC3)nc21`, the figure is 246 to 248 °C; as for `O=C(C(Cl)Cl)N1CCN(c2ccc([N+](=O)[O-])cc2)CC1`, 155 °C; as for `CN(C)C1(c2ccccc2)CCC(c2[nH]c3ccccc3c2CC2CCCCC2)CC1` (stereo not drawn), 195 to 198 °C.
With `COc1ccc(CC(=O)NC(NC(=NC#N)Nc2cc(F)ccc2F)C(C)(C)C)cc1OC` (stereo not drawn) the figure was 190 to 191 °C; with `CSc1cc(C(F)(F)F)ccc1C(=O)CC(=O)C1CC1`, 64 °C; with `Fc1ccccc1-n1c(CN2CCOCC2)nnc1-c1ccc(-c2ccccc2)cc1`, 129 to 131 °C.
The compound `OC1CSC(Oc2cncc(-c3ccc(C(F)(F)F)cc3)c2)C(O)C1O` (stereo not drawn) came in with a melting point of 218 to 219 °C.
With `CS(=O)(=O)c1ccc(C(CC2CCCC2)C(=O)Nc2nc(CO)cs2)cc1` (stereo not drawn) the figure was 124 to 126 °C; with `CC(C)(C)c1ccc(S(=O)(=O)N2c3ccccc3C[C@H]2C(=O)NCc2ccc([N+](=O)[O-])cc2)cc1`, 75 to 80 °C; with `CCc1nc2c(N)nc(C)c(C)c2n1CCCC(N)=O`, 228 to 230 °C.
In turn, `CCCc1c(OCCCS(=O)(=O)c2ccc(C(=O)NCC(=O)OCC)cc2)ccc(C(C)=O)c1O` gave a melting point of 138 to 140 °C.
